From ChEMBL document CHEMBL4043210, “Synthesis of amide isosteres of schweinfurthin-based stilbenes” (2017) come the findings set out here.

The GI50 is the concentration at which growth is held to half of that of the control. Lower therefore signals more potent growth inhibition.

A short description of this assay: Growth inhibition of human NCI60 cells by sulforhodamine B assay. Type of assay: functional.
Consider `COc1cc(NC(=O)c2cc(OC)c3ccn(C)c3c2)cc2c1O[C@]1(C)CC[C@@H](O)C(C)(C)[C@H]1C2`, for which the GI50 amounted to 6600 nM. This counts as single-digit micromolar.

`COc1cc(C(=O)Nc2cc(OC)c3ccn(C)c3c2)cc2c1O[C@]1(C)CC[C@@H](O)C(C)(C)[C@H]1C2` had a 50% growth inhibitory concentration (GI50) of 660 nM. This GI50 lies about 10-fold lower than the previous one.

Take `CC(C)=CCC/C(C)=C/Cc1c(O)cc(/C=C/c2cc(O)c3c(c2)C[C@@H]2C(C)(C)[C@H](O)[C@H](O)C[C@@]2(C)O3)cc1O` [SCHWEINFURTHIN A]: the GI50 turned out to be 360 nM. This GI50 is about 1.8-fold lower than that of the compound before.

For `COc1cc(C(=O)Nc2cc(O)c(C/C=C(\C)CCC=C(C)C)c(O)c2)cc2c1O[C@]1(C)CC[C@@H](O)C(C)(C)[C@H]1C2`, the GI50 was found to be 210 nM. Against the preceding compound, the GI50 is about 1.7-fold lower.

Compound `COc1cc(/C=C/c2cc(O)c(C/C=C(\C)CCC=C(C)C)c(O)c2)cc2c1O[C@]1(C)CC[C@@H](O)C(C)(C)[C@H]1C2` [3-DEOXYSCHWEINFURTHIN B] returned a GI50 of 870 nM. Compared with the last compound, the GI50 is about 4.1-fold higher.

Compound `COc1cc(NC(=O)c2cc(O)c(C/C=C(\C)CCC=C(C)C)c(O)c2)cc2c1O[C@]1(C)CC[C@@H](O)C(C)(C)[C@H]1C2` came in with a concentration for 50% growth inhibition (GI50) of 1100 nM.
